What was measured:
[1] = test system: isolated nematocyst capsules; settings: 50 mM CaCl2; cited from earlier work
[2] = test system: Pelagia noctiluca nematocysts; assay: Nematocyst discharge into human skin slides, Monterey Bay Aquarium; settings: glycerol plus 0.2% diphenhydramine, exposure 10 to 15 seconds
Procedure: (§1) Normal human skin (HS) was obtained from neonatal elective circumcision. The skin was immediately placed into sterile phosphate buffered saline (PBS) containing antibiotic/antimycotic. The tissue was frozen embedded in Tissue-Tek™. The tissue was then sectioned into 50 μm sections using a cryostat. The sections were attached to glass slides coated with polylysine and maintained at −70° C. until time of use. All sections were examined to ensure that they were perpendicular to the plane of the epidermis, exposing cross-sections of epidermis, dermis and sub-cutaneous tissue.
(§2) The slides prepared and frozen as described above were thawed at room temperature. The slides were submersed in sea water for approximately 10 seconds and then attached to jellyfish or sea anemones tentacles for approximately 10 seconds. The tentacles were detached, the slides washed two times with PBS, and blocked using 5% Fetal Bovine serum (FBS), and 0.1% Triton X100 in PBS (blocking solution). All washing and incubation steps were conducted on a tilting shaker at room temperature. The slides were incubated in 10 mL of blocking solution containing a 1:2,500 dilution of the anti-toxin antibody for one hour. After incubation, the slides were washed five times for five minutes each wash with 100 mL of 0.1% TritonX100 in PBS (Wash solution). […]

[3] = test system: Chrysaora quinquecirrha nematocysts; assay: as above; settings: glycerol plus 0.2% diphenhydramine, exposure 10 to 15 seconds
Procedure: as §1, §2

[4] = test system: nematocysts of jellyfish or sea anemone tentacles; assay: Artemia adhesion/paralysis test of nematocyst discharge by tentacle fragments in sea water; assay type: cell-based
Procedure: To initially test inhibition of nematocyst discharge, the following test was performed. It is typical behavior for jellyfish or sea anemone tentacles to adhere to and paralyze newly hatched nauplii of Artemia sp. The adhesion and subsequent paralysis is characteristic of nematocyst discharge by the tentacles. Small 2 to 3 mm fragments of jellyfish or sea anemone tentacles were prepared and placed in a 12-well plate containing filtered sea water. The tentacle fragments were washed by changing the filtered sea water three times. One mL of filtered sea water was left in each well after the final wash. […] The 6 wells without the antihistamine served as controls. Ten Artemia sp. were added to each well in a total volume of between 50 and 100 uL of filtered sea water. After 2 minutes, the number of attached or paralyzed Artemia in each well was measured.

[5] = test system: Auzelia nematocysts; assay: Nematocyst discharge into human skin slides; settings: N=3 test, 3 each control; control discharged less than 100
Procedure: as §1, §2

SMILES	discharge of isolated nematocyst capsules [1]	reduction in nematocyst discharged [2]	decrease of nematocyst discharge [3]	effect on the number of Artemia paralyzed by nematocysts ([4]; 0.02% in sea water, versus sea water alone)	Artemia paralyzed by nematocysts, all wells together ([4]; out of 64 Artemia, 50 of 64 without antihistamine)	decrease in nematocyst discharge [5]
[Ca+2].[Cl-].[Cl-] [CaCl2]	do not discharge					
CN(C)CCOC(c1ccccc1)c1ccccc1.Cl [diphenhydramine, diphenhydramine hydrochloride]		significant reduction	2.5-5 fold	significantly decreased	11	ten-fold decrease
